{"source": "PubChem BioAssay (NCI)", "experiment_in_all_cases": "NCI-60 cell line screen, 48 h", "key": {"ACHN renal": {"tested_on": "ACHN renal"}, "HCT-15 colon": {"tested_on": "HCT-15 colon"}, "HL-60(TB) leukemia": {"tested_on": "HL-60(TB) leukemia"}, "HT29 colon": {"tested_on": "HT29 colon"}, "MALME-3M melanoma": {"tested_on": "MALME-3M melanoma"}, "NCI-H460 lung": {"tested_on": "NCI-H460 lung"}, "OVCAR-5 ovarian": {"tested_on": "OVCAR-5 ovarian"}, "RPMI-8226 leukemia": {"tested_on": "RPMI-8226 leukemia"}, "SK-MEL-5 melanoma": {"tested_on": "SK-MEL-5 melanoma"}, "SK-OV-3 ovarian": {"tested_on": "SK-OV-3 ovarian"}}, "note": "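Assay format: 96-well plates, 48-hour exposure. GI50 is the concentration that inhibits growth by half. TGI: total growth inhibition.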"}
{"smiles": "c1nc(N2CC2)c2cnn(C3CCCCO3)c2n1", "note": "(stereo not given)", "values": [{"measurement": "TGI", "setting": "ACHN renal", "result": "> 100", "unit": "µM"}, {"measurement": "TGI", "setting": "HCT-15 colon", "result": "> 100", "unit": "µM"}, {"measurement": "TGI", "setting": "HL-60(TB) leukemia", "result": "> 100", "unit": "µM"}, {"measurement": "TGI", "setting": "HT29 colon", "result": "> 100", "unit": "µM"}, {"measurement": "TGI", "setting": "MALME-3M melanoma", "result": "> 100", "unit": "µM"}, {"measurement": "TGI", "setting": "NCI-H460 lung", "result": "> 100", "unit": "µM"}, {"measurement": "TGI", "setting": "OVCAR-5 ovarian", "result": "> 100", "unit": "µM"}, {"measurement": "TGI", "setting": "RPMI-8226 leukemia", "result": "> 100", "unit": "µM"}, {"measurement": "TGI", "setting": "SK-MEL-5 melanoma", "result": "> 100", "unit": "µM"}, {"measurement": "TGI", "setting": "SK-OV-3 ovarian", "result": "> 100", "unit": "µM"}]}
{"smiles": "OCCCNc1nc(=S)[nH]c2[nH]ncc12", "values": [{"measurement": "GI50", "setting": "ACHN renal", "result": 40, "unit": "µM"}, {"measurement": "TGI", "setting": "ACHN renal", "result": "> 100", "unit": "µM"}, {"measurement": "GI50", "setting": "HCT-15 colon", "result": 81.9, "unit": "µM"}, {"measurement": "TGI", "setting": "HCT-15 colon", "result": "> 100", "unit": "µM"}, {"measurement": "GI50", "setting": "HL-60(TB) leukemia", "result": "> 100", "unit": "µM"}, {"measurement": "TGI", "setting": "HL-60(TB) leukemia", "result": "> 100", "unit": "µM"}, {"measurement": "GI50", "setting": "HT29 colon", "result": 54.8, "unit": "µM"}, {"measurement": "TGI", "setting": "HT29 colon", "result": "> 100", "unit": "µM"}, {"measurement": "GI50", "setting": "MALME-3M melanoma", "result": 48.3, "unit": "µM"}, {"measurement": "TGI", "setting": "MALME-3M melanoma", "result": "> 100", "unit": "µM"}, {"measurement": "GI50", "setting": "NCI-H460 lung", "result": 30.5, "unit": "µM"}, {"measurement": "TGI", "setting": "NCI-H460 lung", "result": "> 100", "unit": "µM"}, {"measurement": "GI50", "setting": "OVCAR-5 ovarian", "result": 45.8, "unit": "µM"}, {"measurement": "TGI", "setting": "OVCAR-5 ovarian", "result": "> 100", "unit": "µM"}, {"measurement": "GI50", "setting": "RPMI-8226 leukemia", "result": 80.8, "unit": "µM"}, {"measurement": "TGI", "setting": "RPMI-8226 leukemia", "result": "> 100", "unit": "µM"}, {"measurement": "GI50", "setting": "SK-MEL-5 melanoma", "result": 31.3, "unit": "µM"}, {"measurement": "TGI", "setting": "SK-MEL-5 melanoma", "result": "> 100", "unit": "µM"}, {"measurement": "GI50", "setting": "SK-OV-3 ovarian", "result": 48.7, "unit": "µM"}, {"measurement": "TGI", "setting": "SK-OV-3 ovarian", "result": "> 100", "unit": "µM"}]}
{"smiles": "CCOC(=O)NC(=O)c1cn(CCNCCO)c(=O)[nH]c1=O", "values": [{"measurement": "TGI", "setting": "ACHN renal", "result": "> 100", "unit": "µM"}, {"measurement": "TGI", "setting": "HCT-15 colon", "result": "> 100", "unit": "µM"}, {"measurement": "TGI", "setting": "HL-60(TB) leukemia", "result": "> 100", "unit": "µM"}, {"measurement": "TGI", "setting": "HT29 colon", "result": "> 100", "unit": "µM"}, {"measurement": "TGI", "setting": "MALME-3M melanoma", "result": "> 100", "unit": "µM"}, {"measurement": "TGI", "setting": "NCI-H460 lung", "result": "> 100", "unit": "µM"}, {"measurement": "TGI", "setting": "OVCAR-5 ovarian", "result": "> 100", "unit": "µM"}, {"measurement": "TGI", "setting": "RPMI-8226 leukemia", "result": "> 100", "unit": "µM"}, {"measurement": "TGI", "setting": "SK-MEL-5 melanoma", "result": "> 100", "unit": "µM"}, {"measurement": "TGI", "setting": "SK-OV-3 ovarian", "result": "> 100", "unit": "µM"}]}
{"smiles": "CCN(CCO)C(=O)C1(c2ccccc2)CCCCC1", "values": [{"measurement": "TGI", "setting": "ACHN renal", "result": "> 10", "unit": "µM"}, {"measurement": "TGI", "setting": "HCT-15 colon", "result": "> 10", "unit": "µM"}, {"measurement": "TGI", "setting": "HL-60(TB) leukemia", "result": "> 10", "unit": "µM"}, {"measurement": "TGI", "setting": "HT29 colon", "result": "> 10", "unit": "µM"}, {"measurement": "TGI", "setting": "MALME-3M melanoma", "result": "> 10", "unit": "µM"}, {"measurement": "TGI", "setting": "NCI-H460 lung", "result": "> 10", "unit": "µM"}, {"measurement": "TGI", "setting": "OVCAR-5 ovarian", "result": "> 10", "unit": "µM"}, {"measurement": "TGI", "setting": "RPMI-8226 leukemia", "result": "> 10", "unit": "µM"}, {"measurement": "TGI", "setting": "SK-MEL-5 melanoma", "result": "> 10", "unit": "µM"}, {"measurement": "TGI", "setting": "SK-OV-3 ovarian", "result": "> 10", "unit": "µM"}]}
{"smiles": "COc1ccc(CC2CCc3nc(N)nc(N)c3C2)cc1OC", "note": "(stereo not given)", "values": [{"measurement": "TGI", "setting": "ACHN renal", "result": "> 63.1", "unit": "µM"}, {"measurement": "TGI", "setting": "HCT-15 colon", "result": 98, "unit": "µM"}, {"measurement": "TGI", "setting": "HL-60(TB) leukemia", "result": "> 100", "unit": "µM"}, {"measurement": "TGI", "setting": "HT29 colon", "result": "> 24.5", "unit": "µM"}, {"measurement": "TGI", "setting": "MALME-3M melanoma", "result": 23.2, "unit": "µM"}, {"measurement": "TGI", "setting": "NCI-H460 lung", "result": "> 48.6", "unit": "µM"}, {"measurement": "TGI", "setting": "OVCAR-5 ovarian", "result": "> 100", "unit": "µM"}, {"measurement": "TGI", "setting": "RPMI-8226 leukemia", "result": "> 100", "unit": "µM"}, {"measurement": "TGI", "setting": "SK-MEL-5 melanoma", "result": 18.5, "unit": "µM"}, {"measurement": "TGI", "setting": "SK-OV-3 ovarian", "result": "> 100", "unit": "µM"}]}
